Laboratory results published in patent US11253497B2, “Use of derivatives of polyunsaturated fatty acids as medicaments” (Lipopharma Therapeutics, S.L., priority 2009, dated 2022).
pIC50: −log10 of the molar value.

What was measured:
[1] = test system: Spontaneously Hypertensive Rats (SHR); assay: Blood pressure of SHR rats (cuff-tail method); assay type: in vivo, rat; details: 200 mg/kg day p.o., 30 days, before treatment 214 mmHg
Experimental: (§1) In a separate experimental series, it was studied the effect of D-PUFA molecules of the present invention on blood pressure of SHR rats. In these animals both, blood pressure and levels of apolipoprotein AI (apoA-I) were measured. For these experiments Spontaneously Hypertensive Rats (SHR) were treated for 30 days with vehicle (water control) or compounds of the invention (200 mg/kg day, p.o.). At the end of this period, the animals' blood pressure and serum levels of apoA-I were measured. […] For these experiments, non-invasive methods for determining blood pressure (cuff-tail method) and gene expression for apoA-I (RT-PCR) described in the literature (Terés et al., 2008) were used. The usefulness of the molecules of the present invention for the treatment of cardiovascular diseases is reinforced by its capacity for reducing the levels of serum cholesterol and triglycerides (see below).
(§2) The average values of SHR before treatment were 214 mmHg and 100% respectively.

[2] = test system: breast cancer cells MDA-MB-231; assay: Growth of breast cancer cells MDA-MB-231; assay type: cell-based; details: 72 hours of incubation
Experimental: (§3) For the experiments shown in FIG. 1, cultured human Non Small Cell Lung Cancer cells (A549) in RPMI 1640 were used, supplemented with 10% foetal bovine serum and antibiotics, at 37° C. and 5% CO2. […] After treatment, cell count was performed and the study of the mechanisms involved in the antitumor activity of compounds was evaluated by flow cytometry. […] These values correspond to averages of three independent experiments.
(§4) These charts show the antitumor efficacy of the compounds of this invention against the growth of breast cancer cells, brain (glioma), and lung cancer. […] The other experimental conditions are identical to those described in the preceding paragraph.

[3] = Serum cholesterol, triglycerides and glucose in SHR rats (colorimetric); assay type: in vivo, rat; details: 200 mg/kg daily p.o., 28 days, untreated rats 100%
Experimental: In a separate experimental series, SHR rats were treated with various compounds of the present invention (200 mg/kg daily, 28 days, p.o.) and the levels of cholesterol, triglycerides and glucose in serum were measured by colorimetric methods. It was observed that these compounds induce significant (and in many cases marked) reductions in the levels of these metabolites (Table 16).
Values are expressed as percent, and in untreated (control) rats values were always considered as 100%.

lung cancer cells A549 = assay: Growth of lung cancer cells A549 (IC50); assay type: cell-based, human; details: 72 hours of incubation
Experimental: as §3, §4

[4] = test system: apolipoprotein AI (apoA-I); assay: Levels of apoA-I in SHR rats (RT-PCR); assay type: in vivo, rat; details: 200 mg/kg day p.o., 30 days, before treatment 100%
Experimental: as §1, §2

[5] = test system: brain cancer cell (glioma) U118; assay: Brain cancer (glioma) U118 cell growth; assay type: cell-based; details: 72 hours of incubation
Experimental: For the experiments shown in FIG. 1, cultured human Non Small Cell Lung Cancer cells (A549) in RPMI 1640 were used, supplemented with 10% foetal bovine serum and antibiotics, at 37° C. and 5% CO2. Cells were maintained in culture for 48 hours in the presence or absence of D-PUFAs and PUFAs indicated in Table 2 at a concentration of 250 µM. After treatment, cell count was performed and the study of the mechanisms involved in the antitumor activity of compounds was evaluated by flow cytometry. […] These values correspond to averages of three independent experiments.
as §4

[6] = Lamellar-to-hexagonal (HII) transition temperature in DEPE model membranes by Differential Scanning Calorimetry; assay type: physicochemical; details: DEPE membranes, DEPE:D-PUFA 10:1 (mol:mol)
Experimental: The transition temperature was determined by Differential Scanning Calorimetry. The proportion DEPE:D-PUFA was 10:1 (mol:mol) in all cases. Lamellar-to-hexagonal transition is an important parameter that reflects relevant signalling properties of cell membranes. […] When this occurs, certain peripheral membrane proteins (such as G proteins, protein kinase C or Ras protein) can more easily bind to the membrane, while others have a poor interaction (e.g., the Gα-protein), so changes in the HII transition temperature are important in regulating cellular functions related to health and human therapy (Escriba et al., 1995, Vogler et al., 2004; Escriba, 2006).
Control values correspond to model membranes in the absence of fatty acids. The reduction in HII transition temperature obtained by using the D-PUFA of the invention indicates an increased induction of membrane discontinuities, generating anchoring sites in the membrane for peripheral proteins and leads to better regulation of cell signalling and, therefore, greater effectiveness in the control of certain diseases.

Row | SMILES | pIC50 [2] | pIC50 (lung cancer cells A549) | pIC50 [5] | Temperature of lamellar-to-hexagonal transition [6] | Blood pressure [1] | Cholesterol in serum (top number) [3] | Glucose in serum (bottom number) [3] | Triglycerides in serum (central number) [3] | Levels of apoA-I [4]
1 | CCCCCC=CCC=CCCCCCCC(C)C(=O)OCC (stereo not drawn) [182N1] | 3.53 | 3.48 | 3.61 |  | 187 mm Hg | 92% | 90% | 93% | 159%
2 | CCCCCC=CCC=CCCCCCCC(CO)C(=O)O (stereo not drawn) [182P1] | 3.38 | 3.48 |  |  | 202 mm Hg |  |  |  | 184%
3 | CCC=CCC=CCC=CCCCCCCC(C)C(=O)OCC (stereo not drawn) [183N1] | 3.56 | 3.42 | 3.49 |  | 208 mm Hg | 72% | 84% | 69% | 189%
4 | CCC=CCC=CCC=CCCCCCCC(Cl)C(=O)OCC (stereo not drawn) [183O1] | 3.57 | 3.46 | 3.43 | 51.2 °C |  |  |  |  | 
5 | CCC=CCC=CCC=CCCCCCCC(CO)C(=O)O (stereo not drawn) [183P1] | 3.46 | 3.50 | 3.55 |  | 201 mm Hg |  |  |  | 178%
6 | CCC=CCC=CCC=CCCCCCCC(OP(=O)(OCC)OCC)C(=O)OCC (stereo not drawn) [183R1] | 3.52 | 3.59 | 3.51 | 51.8 °C |  |  |  |  | 
7 | CCCCCC=CCC=CCC=CCCCC(OP(=O)(OCC)OCC)C(=O)OCC (stereo not drawn) [183R2] | 3.76 | 3.56 | 3.34 | 49.9 °C |  |  |  |  | 
8 | CCC=CCC=CCC=CCC=CCC=CCCC(O)C(=O)OCC (stereo not drawn) [205E1] | 3.55 | 3.38 | 3.29 | 46.7 °C |  |  |  |  | 
9 | CCC=CCC=CCC=CCC=CCC=CCCC(C)C(=O)OCC (stereo not drawn) [205N1] | 3.54 | 3.42 | 3.29 |  | 189 mm Hg | 80% | 86% | 73% | 293%
10 | CCC=CCC=CCC=CCC=CCC=CCCC(OP(=O)(OCC)OCC)C(=O)OCC (stereo not drawn) [205R1] | 3.61 | 3.38 | 3.33 | 48.4 °C |  |  |  |  | 
11 | CCC=CCC=CCC=CCC=CCC=CCC=CCC(O)C(=O)OC (stereo not drawn) [226D1] | 3.65 | 3.66 | 3.62 | 43.9 °C |  |  |  |  | 
12 | CCC=CCC=CCC=CCC=CCC=CCC=CCC(O)C(=O)OCC (stereo not drawn) [226E1] | 3.68 | 3.68 | 3.58 | 42.9 °C |  |  |  |  | 
13 | CCC=CCC=CCC=CCC=CCC=CCC=CCC(OC)C(=O)O (stereo not drawn) [226G1] | 3.67 | 3.56 | 3.56 | 44.1 °C |  |  |  |  | 
14 | CCC=CCC=CCC=CCC=CCC=CCC=CCC(CO)C(=O)O (stereo not drawn) [226P1] | 3.60 | 3.54 | 3.54 |  | 193 mm Hg |  |  |  | 382%

Continued, in another order:

Row | pIC50 [2] | pIC50 (lung cancer cells A549) | pIC50 [5] | Temperature of lamellar-to-hexagonal transition [6] | SMILES | Blood pressure [1] | Cholesterol in serum (top number) [3] | Glucose in serum (bottom number) [3] | Triglycerides in serum (central number) [3] | Levels of apoA-I [4]
15 | 3.80 | 3.53 | 3.40 | 50.1 °C | CCCCCC=CCC=CCC=CCCCC(OC)C(=O)O (stereo not drawn) [183G2] |  |  |  |  | 
16 | 3.73 | 3.59 | 3.41 |  | CCCCCC=CCC=CCC=CCCCC(C)C(=O)OCC (stereo not drawn) [183N2] | 194 mm Hg | 89% | 92% | 85% | 296%
17 | 3.67 | 3.57 | 3.41 |  | CCCCCC=CCC=CCC=CCCCC(CO)C(=O)O (stereo not drawn) [183P2] | 187 mm Hg |  |  |  | 347%
18 | 3.55 | 3.43 | 3.51 | 48.7 °C | CCCCCC=CCC=CCC=CCC=CCCC(O)C(=O)OC (stereo not drawn) [204D1] |  |  |  |  | 
19 | 3.52 | 3.32 | 3.65 | 48.4 °C | CCCCCC=CCC=CCC=CCC=CCCC(O)C(=O)OCC (stereo not drawn) [204E1] |  |  |  |  | 
20 | 3.43 | 3.37 | 3.47 | 49.6 °C | CCCCCC=CCC=CCC=CCC=CCCC(OC)C(=O)O (stereo not drawn) [204G1] |  |  |  |  | 
21 | 3.56 | 3.38 | 3.50 |  | CCCCCC=CCC=CCC=CCC=CCCC(C)C(=O)OCC (stereo not drawn) [204N1] | 201 mm Hg | 82% | 82% | 81% | 174%
22 | 3.43 | 3.41 | 3.54 |  | CCCCCC=CCC=CCC=CCC=CCCC(CO)C(=O)O (stereo not drawn) [204P1] | 203 mm Hg |  |  |  | 153%
23 | 3.55 | 3.44 | 3.30 | 50 °C | CCCCCC=CCC=CCC=CCC=CCCC(OP(=O)(OCC)OCC)C(=O)OCC (stereo not drawn) [204R1] |  |  |  |  | 
24 | 5.70 | 3.44 | 3.33 | 47.5 °C | CCC=CCC=CCC=CCC=CCC=CCCC(O)C(=O)OC (stereo not drawn) [205D1] |  |  |  |  | 
25 | 3.66 | 3.39 | 3.37 | 47.3 °C | CCC=CCC=CCC=CCC=CCC=CCCC(OC)C(=O)O (stereo not drawn) [205G1] |  |  |  |  | 
26 | 3.52 | 3.47 | 3.36 |  | CCC=CCC=CCC=CCC=CCC=CCCC(CO)C(=O)O (stereo not drawn) [205P1] | 194 mm Hg |  |  |  | 337%
